Broadly, the MIC is the lowest concentration found to suppress growth.

In ChEMBL document CHEMBL4813942, “Hydrated Rubrolides from the New Zealand Tunicate Synoicum kuranui” (2021) one finds MIC and Activity data, which are given here for five molecules.

The test system of experiment [1] is Staphylococcus aureus. Description: Antibacterial activity against methicillin-sensitive Staphylococcus aureus ATCC 25923 assessed as bacterial growth inhibition measured after 16 hrs by serial dilution method. It counts as functional.
In experiment [2] the test system is Staphylococcus aureus. Put plainly: Antibacterial activity against methicillin-resistant Staphylococcus aureus ATCC 43300 assessed as bacterial growth inhibition measured after 16 hrs by serial dilution method. It counts as functional.
The subject of experiment [3] is HCT-116. Description: Cytotoxicity against human HCT-116 cells assessed as reduction in cell growth at 0.06 to 30 uM measured after 48 hrs by MTS assay. It counts as functional, cell-based. The settings on record: dose 0.06-30 µM. (In general: Formazan colour is commonly taken as a measure of viable cells.)
A further experiment concerns Bacillus subtilis. Put plainly: Antibacterial activity against Bacillus subtilis 168 assessed as bacterial growth inhibition measured after 16 hrs by serial dilution method. It counts as functional. As to conditions: subsp. subtilis str. 168.
Experiment [4] relates to HCT-116. Put plainly: Cytotoxicity against human HCT-116 cells assessed as reduction in cell growth at 12.8 uM measured after 48 hrs by MTS assay. It counts as functional, cell-based.

Values after ≈ are worked out from the molar mass of the structure shown. Active and inactive are the calls of the source. The rule behind the calls is not given here.

For the molecule `O=C1C=C(c2cc(Br)c(O)c(Br)c2)/C(=C/c2cc(Br)c(O)c(Br)c2)O1` [RUBROLIDE A], the MIC was 8 µg/mL (≈ 13.4 µM) with Staphylococcus aureus [1], 2 µg/mL (≈ 3.36 µM) with Staphylococcus aureus [2] and 2 µg/mL (≈ 3.36 µM) in the experiment on Bacillus subtilis. Further, in the experiment with HCT-116 [3], the result was inactive.
Take `O=C1C=C(c2cc(Br)c(O)c(Br)c2)C(O)(Cc2ccc(O)c(Br)c2)O1` (centres undefined): the MIC with Staphylococcus aureus [1], in the experiment with Staphylococcus aureus [2] and with Bacillus subtilis was > 128 µg/mL in each case. Further, the result with HCT-116 [4] was Active.
With `CN(C)[C@@H]1C(O)=C(C(N)=O)C(=O)[C@@]2(O)C(O)=C3C(=O)c4c(O)cccc4[C@@](C)(O)[C@H]3C[C@@H]12` [TETRACYCLINE], the MIC in the experiment with Staphylococcus aureus [1] is < 0.25 µg/mL; in the experiment on Staphylococcus aureus [2], < 0.25 µg/mL; in the experiment on Bacillus subtilis, 2 µg/mL (≈ 4.5 µM).
`O=C1OC(O)(Cc2ccc(O)cc2)C(c2cc(Br)c(O)c(Br)c2)=C1Cl` (centres undefined): the MIC in the experiment with Staphylococcus aureus [1], in the experiment with Staphylococcus aureus [2] and in the experiment on Bacillus subtilis was 128 µg/mL (≈ 261 µM) throughout. Also, the outcome in the experiment on HCT-116 [3] was inactive.
As to `O=C1C=C(c2cc(Br)c(O)c(Br)c2)C(O)(Cc2cc(Br)c(O)c(Br)c2)O1` (centres undefined), the results for the MIC with Staphylococcus aureus [1], in the experiment on Staphylococcus aureus [2] and in the experiment with Bacillus subtilis were 32 µg/mL (≈ 52.1 µM), 16 µg/mL (≈ 26.1 µM) and 32 µg/mL (≈ 52.1 µM), respectively. Moreover, in the experiment with HCT-116 [3], the outcome was inactive.
